In patent US20180338980A1, “AROMATIC SULFONAMIDE DERIVATIVES” (BAYER PHARMA AKTIENGESELLSCHAFT, priority 2015, published 2018):

Experiments:
Type in all cases: cell-based
mouse P2X4 receptors = molecular target: T1, mouse P2X4 receptors (Mus musculus, UniProt Q9JJX6); test: Assay B: mouse P2X4 receptor cell line, Fluo8 fluorescence FLIPR (agonist Bz-ATP at EC50); conditions: HEK mouse P2X4 cell line, agonist Bz-ATP at EC50, average
T1 construct: host or cells: HEK 293 (recombinant, constitutively expressing)
T1 sequence (Q9JJX6 1-388): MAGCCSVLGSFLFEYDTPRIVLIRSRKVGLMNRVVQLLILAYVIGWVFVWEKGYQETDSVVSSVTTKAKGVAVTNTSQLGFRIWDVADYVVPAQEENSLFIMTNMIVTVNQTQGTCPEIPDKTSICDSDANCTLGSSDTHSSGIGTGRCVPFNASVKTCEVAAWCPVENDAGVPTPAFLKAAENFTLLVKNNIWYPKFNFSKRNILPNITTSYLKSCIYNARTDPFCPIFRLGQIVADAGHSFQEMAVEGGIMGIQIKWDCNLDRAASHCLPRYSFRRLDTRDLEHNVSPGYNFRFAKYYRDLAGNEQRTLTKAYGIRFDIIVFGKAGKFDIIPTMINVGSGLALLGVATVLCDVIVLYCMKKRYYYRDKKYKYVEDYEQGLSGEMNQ
Experimental: The identification of agonists and antagonists of the P2X4 receptor from humans and […] also the quantification of the activity of the compounds of the invention was performed by use of recombinant cell lines. […] The test cell lines constitutively express the mouse or human P2X4 receptors. Stimulation of the receptors with an agonist leads to a conformational change of P2X4 and influx of extracellular calcium ions through the ion channel. The cytoplasmatic calcium transient is detected via the calcium sensitive dye Fluo8 for the mouse P2×4 cell line or in case of the human P2×4 cell line a stably expressed calcium-sensitive photoprotein, mitochondrial photina, which, after reconstitution with the cofactor coelenterazine, emits light in dependence of calcium binding [Bovolenta S, Foti M, Lohmer S, Corazza S., J Biomol Screen. […] The strength of Fluo8 fluorescence signal or photina luminescence signal corresponds to the level of receptor activation. An inhibitor would decrease the signal depending on its potency and concentration.
On the day of the assay medium is exchanged by Fluo8 containing buffer for 30 minutes. In the fluorescence reader (FLIPR) test substances in various concentrations are added for 10 minutes. After baseline measurement the agonist Bz-ATP at EC50 concentration is applied and fluorescence is measured immediately.

P2X4 [1] = molecular target: T2, P2X4 (Homo sapiens, UniProt Q99571); test: Assay B: human P2X4 receptor cell line, mitochondrial photina luminescence (agonist Bz-ATP at EC50); design: host or cells: HEK 293 (recombinant, constitutively expressing; with mitochondrial photina in Assay B); conditions: for Emax: read-out: human P2X4 Assay B avg Efficacy
T2 sequence (Q99571 1-388): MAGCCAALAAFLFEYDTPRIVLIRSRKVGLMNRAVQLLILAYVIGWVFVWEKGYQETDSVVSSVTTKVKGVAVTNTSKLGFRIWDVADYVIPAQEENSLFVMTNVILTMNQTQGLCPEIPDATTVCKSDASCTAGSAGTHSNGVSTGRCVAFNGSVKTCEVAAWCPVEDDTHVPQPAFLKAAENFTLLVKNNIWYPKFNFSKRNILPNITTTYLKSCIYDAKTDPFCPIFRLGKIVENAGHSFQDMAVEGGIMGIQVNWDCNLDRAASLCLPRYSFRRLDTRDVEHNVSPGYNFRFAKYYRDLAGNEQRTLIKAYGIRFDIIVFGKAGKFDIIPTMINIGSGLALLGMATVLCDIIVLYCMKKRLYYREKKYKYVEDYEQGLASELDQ
In short: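 Recombinant cell line constitutively expressing human P2X4 and mitochondrial photina photoprotein, reconstituted with coelenterazine. Receptor stimulated with Bz-ATP at EC50; calcium influx read immediately as luminescence.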

P2X4 [2] = molecular target: T2, P2X4; test: Assay A: human P2X4 receptor cell line, FLIPR calcium assay (Fluo-8, agonist Bz-ATP at EC80); design: host or cells: HEK 293 (recombinant, constitutively expressing; with mitochondrial photina in Assay B); conditions: for Emax: read-out: human P2X4 Assay A avg Efficacy; for IC50: Bz-ATP at EC80, average values
In short: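 HEK cells expressing human P2X4 (20,000/well, plated ~20 h earlier) loaded 30 min with 5 μM Fluo-8 in HBSS/HEPES buffer with 1.8 mM CaCl2, 1 mM MgCl2, 2 mM probenecid, pH 7.4. Antagonist preincubated 30 min at room temperature (0.5% DMSO), then Bz-ATP at EC80. Peak fluorescence over 120 s, normalized to DMSO; triplicate IC50 and Hill fits.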

[3] = HEK human P2X4 cell line, photina luminescence, agonist Bz-ATP at EC50, average
[4] = percentage of maximal inhibition, HEK human P2X4 cells, Fluo-8 FLIPR
[5] = HEK human P2X4 cells, Fluo-8 FLIPR

| SMILES | mouse P2X4 Assay B avg Efficacy (mouse P2X4 receptors) | IC50 (mouse P2X4 receptors) | IC50 (P2X4 [1]; [3]) | Emax (P2X4 [1]; [3]) | Emax (P2X4 [2]; [4]) | IC50 (P2X4 [2]; [5]) | Emax (P2X4 [2]) | Emax (P2X4 [1]) |
| --- | --- | --- | --- | --- | --- | --- | --- | --- |
| NS(=O)(=O)c1cc(NC(=O)Cc2ccccc2Cl)ccc1Oc1cncc(Cl)c1 [Example 029, 2-(2-Chlorophenyl)-N-{4-[(5-chloropyridin-3-yl)oxy]-3-sulfamoylphenyl}acetamide] | 50% | – | – | – | – | – | – | – |
| NS(=O)(=O)c1cc(NC(=O)Cc2ccccc2)ccc1OCc1ccccc1 [Example 146, N-[4-(Benzyloxy)-3-sulfamoylphenyl]-2-phenylacetamide] | 7% | > 50000 nM | 314 nM | 71% | – | – | – | – |
| NS(=O)(=O)c1cc(NC(=O)Cc2ccccn2)ccc1Oc1cccc(Cl)c1 [Example 185, N-[4-(3-Chlorophenoxy)-3-sulfamoylphenyl]-2-(pyridin-2-yl)acetamide] | 22% | > 16000 nM | 567 nM | 77% | – | – | – | – |
| NS(=O)(=O)c1cc(NC(=O)Cc2ccccc2Cl)ccc1Oc1cccc(Cl)c1 [Example 187, N-[4-(3-Chlorophenoxy)-3-sulfamoylphenyl]-2-(2-chlorophenyl)acetamide] | 41% | – | – | – | – | – | – | – |
| CC(C(=O)Nc1ccc(Oc2cccc(Cl)c2)c(S(N)(=O)=O)c1)c1ccccc1Cl (centres unmarked) [Example 196, N-[4-(3-Chlorophenoxy)-3-sulfamoylphenyl]-2-(2-chlorophenyl)propanamide] | – | – | – | – | – | – | 82% | 71% |
| Cn1cc(Oc2ccc(NC(=O)Cc3ccccc3Cl)cc2S(N)(=O)=O)cn1 [Example 233, 2-(2-Chlorophenyl)-N-{4-[(1-methyl-1H-pyrazol-4-yl)oxy]-3-sulfamoylphenyl}acetamide] | – | – | – | 79% | 70% | – | – | – |
| COc1ccc(CC(=O)Nc2ccc(Oc3ccc(Cl)cc3)c(S(N)(=O)=O)c2)c(Cl)c1 [Example 235, 2-(2-Chloro-4-methoxyphenyl)-N-[4-(4-chlorophenoxy)-3-sulfamoylphenyl]acetamide] | – | – | 787 nM | 69% | 79% | 473 nM | – | – |
| Cc1cc(NC(=O)Cc2ccccc2Cl)cc(S(N)(=O)=O)c1Oc1cccc(Cl)c1 [Example 270, N-[4-(3-Chlorophenoxy)-3-methyl-5-sulfamoylphenyl]-2-(2-chlorophenyl)acetamide] | 44% | 1240 nM | – | – | 94% | 104 nM | – | – |
| COC(=O)c1ccccc1Oc1ccc(NC(=O)Cc2ccccc2Cl)cc1S(N)(=O)=O [Example 272, Methyl 2-(4-{[(2-chlorophenyl)acetyl]amino}-2-sulfamoylphenoxy)benzoate] | 25% | > 16000 nM | – | – | 73% | 19 nM | – | – |
| CC(C)(O)c1cccc(Oc2ccc(NC(=O)Cc3ccccc3Cl)cc2S(N)(=O)=O)c1 [Example 274, 2-(2-Chlorophenyl)-N-{4-[3-(2-hydroxypropan-2-yl)phenoxy]-3-sulfamoylphenyl}acetamide] | – | – | – | 64% | 104% | – | – | – |
| CC(C)(O)c1ccccc1Oc1ccc(NC(=O)Cc2ccccc2Cl)cc1S(N)(=O)=O [Example 275, 2-(2-Chlorophenyl)-N-{4-[2-(2-hydroxypropan-2-yl)phenoxy]-3-sulfamoylphenyl}acetamide] | 44% | – | – | – | – | – | – | – |
| NS(=O)(=O)c1cc(NC(=O)Cc2ccccc2F)ccc1OCC1CCOCC1 [Example 279, 2-(2-Fluorophenyl)-N-[3-sulfamoyl-4-(tetrahydro-2H-pyran-4-ylmethoxy)phenyl]acetamide] | – | – | – | – | – | – | 61% | 85% |

Second part, led by results:

| mouse P2X4 Assay B avg Efficacy (mouse P2X4 receptors) | IC50 (mouse P2X4 receptors) | IC50 (P2X4 [1]; [3]) | Emax (P2X4 [1]; [3]) | Emax (P2X4 [2]; [4]) | IC50 (P2X4 [2]; [5]) | SMILES | Emax (P2X4 [2]) | Emax (P2X4 [1]) |
| --- | --- | --- | --- | --- | --- | --- | --- | --- |
| 43% | – | – | – | – | – | NS(=O)(=O)c1cc(NC(=O)Cc2c(F)cccc2Cl)ccc1Oc1cccc(Cl)c1 [Example 100, 2-(2-Chloro-6-fluorophenyl)-N-[4-(3-chlorophenoxy)-3-sulfamoylphenyl]acetamide] | – | – |
| – | – | – | 83% | 86% | – | NS(=O)(=O)c1cc(NC(=O)Cc2ccccc2Cl)ccc1OC1CCCCC1 [Example 200, 2-(2-Chlorophenyl)-N-[4-(cyclohexyloxy)-3-sulfamoylphenyl]acetamide] | – | – |
| – | – | 552 nM | 67% | 87% | 38 nM | COCCN(C)C(=O)c1cccc(CC(=O)Nc2ccc(Oc3cccc(Cl)c3)c(S(N)(=O)=O)c2)c1 [Example 208, 3-(2-{[4-(3-Chlorophenoxy)-3-sulfamoylphenyl]amino}-2-oxoethyl)-N-(2-methoxyethyl)-N-methylbenzamide] | – | – |
| – | – | 623 nM | 61% | 78% | 345 nM | N#Cc1ccc(CC(=O)Nc2ccc(Oc3cccc(Cl)c3)c(S(N)(=O)=O)c2)cc1 [Example 224, N-[4-(3-Chlorophenoxy)-3-sulfamoylphenyl]-2-(4-cyanophenyl)acetamide] | – | – |
| – | – | 121 nM | 46% | 62% | 529 nM | NS(=O)(=O)c1cc(NC(=O)Cc2ccc(F)cc2Cl)ccc1Oc1ccc(Cl)cc1 [Example 231, 2-(2-Chloro-4-fluorophenyl)-N-[4-(4-chlorophenoxy)-3-sulfamoylphenyl]acetamide] | – | – |
| – | – | 695 nM | 43% | 73% | 562 nM | NS(=O)(=O)c1cc(NC(=O)Cc2ccc(C(F)F)cc2)ccc1Oc1ccc(Cl)cc1 [Example 234, N-[4-(4-Chlorophenoxy)-3-sulfamoylphenyl]-2-[4-(difluoromethyl)phenyl]acetamide] | – | – |
| 52% | 260 nM | – | – | 76% | 779 nM | CC(C(=O)Nc1ccc(Oc2cccc(Cl)c2)c(S(N)(=O)=O)c1)c1c(F)cccc1Cl (centres unmarked) [Example 258, 2-(2-Chloro-6-fluorophenyl)-N-[4-(3-chlorophenoxy)-3-sulfamoylphenyl]propanamide] | – | – |
| – | – | – | 80% | 62% | – | CC(C)(O)c1ccc(Oc2ccc(NC(=O)Cc3ccccc3Cl)cc2S(N)(=O)=O)cc1 [Example 264, 2-(2-Chlorophenyl)-N-{4-[4-(2-hydroxypropan-2-yl)phenoxy]-3-sulfamoylphenyl}acetamide] | – | – |
| – | – | > 50000 nM | 14% | 37% | > 25000 nM | CC1(C)CC(Oc2ccc(NC(=O)Cc3ccccc3Cl)cc2S(N)(=O)=O)CC(C)(C)O1 [Example 269, 2-(2-Chlorophenyl)-N-{3-sulfamoyl-4-[(2,2,6,6-tetramethyltetrahydro-2H-pyran-4-yl)oxy]phenyl}acetamide] | – | – |
| 31% | > 16000 nM | – | – | 84% | 81 nM | Cc1cc(NC(=O)Cc2ccccc2)cc(S(N)(=O)=O)c1Oc1cccc(Cl)c1 [Example 271, N-[4-(3-Chlorophenoxy)-3-methyl-5-sulfamoylphenyl]-2-phenylacetamide] | – | – |
| – | – | 180 nM | 65% | 82% | 139 nM | NS(=O)(=O)c1cc(NC(=O)Cc2c(Cl)ccc3c2CCO3)ccc1Oc1cccc(Cl)c1 [Example 278, 2-(5-Chloro-2,3-dihydro-1-benzofuran-4-yl)-N-[4-(3-chlorophenoxy)-3-sulfamoylphenyl]acetamide] | – | – |
